Test results from patent US20050203155A1, “Imidazole compounds and human cellular proteins casein kinase I alpha, delta and epsilon as targets for medical intervention against Hepatitis C Virus infections” (priority 2002, published 2005).
pIC50: −log10 of the molar value.

Experiments:
HCV RNA = assay: Metabolic labelling of HCV RNA in HCV replicon cell line 5-15 in the presence of actinomycin D; format: cell-based, Hepatitis C Virus; settings: 50 μM, replicon cell line 5-15, actinomycin D, overnight [33P]-orthophosphate labelling
Description: 1×10^6 Huh7-5-15 replicon cells and Huh-pcDNA3 cells were seeded into 10 cm culture plates and grown as described. After 24 hours cells were washed with phosphate-free medium and incubated in phosphate-free medium supplemented with 10% phosphate-free calf serum. Actinomycin D at a final concentration of 5 μg/ml was added to the cells together with the tested compounds at final concentrations of 10 and 50 μM. After 30 minutes of incubation cells were supplemented with 200 μCi ^33P-orthophosphate per dish and incubated over night. After cell lysis, RNA isolation was performed using the RNeasy mini kit (QIAGEN) according to recommendations given by the manufacturer. Northern blot was carried out according to standard procedures and autoradiography of the membrane was performed.

HCV replicons = assay: Luciferase reporter assay of HCV replicons in the Huh-5-2 cell line; format: cell-based, Hepatitis C Virus; settings: for % activity (luciferase, replicon RNA levels): 3 days, Huh-5-2, percentage of DMSO controls
Source text: (§1) The Huh-5-2 cell line carries the persistant bicistronic replicon I389luc-ubi-neo/NS3-3′/5.1 that expresses a firefly luciferase-ubiquitin-neomycin phosphotransferase fusion protein under the control of the HCV 5′ UTR and the NS3-5B HCV polyprotein that harbors the cell culture adaptive mutation of NK5.1. (J. Virol. 75:4614-4624, 2001) and is driven by the EMCV-IRES. Autonomously replicating HCV RNA replicons are detectable by Northern blot or via expression of the luciferase part of the fusion protein in a luciferase reporter assay. For luciferase reporter assays, Huh-5-2 cells were seeded at 2500 cells per well in 96 well plates in medium without G418. […] On day 3 after addition of compounds, Alamar Blue™ solution (Serotec), which contains a redox indicator, was added to the cells to measure cell proliferation and compound cytotoxicity. After incubation for 3-4 hours, fluorescence was monitored at the wavelengths of 560 nm and 590 nm with a Wallac 1420 multilabel counter. For the luciferase assay, the cells were subsequently washed twice with PBS without sodium hydrogen carbonate (Life Technologies GmbH, Karlsruhe), and luciferase activity was determined with the LucLite Plus Assay Kit (Packard Bioscience B.V.) according to the manufacturer's instructions in a Wallac 1450 Microbeta Luminescence counter.

CKI isoforms α, δ and ε = assay: In-vitro kinase assay, GST-NS5A phosphorylation by Mono Q Peak I fractions of Huh-7 cells; format: biochemical, human; settings: CKI-enriched partially purified Mono Q fraction of Huh-7 cells, FIG. 6A
Description: Confluent 15 cm dishes of Huh-7 cells were lysed in 500 μl lysis buffer per dish containing 20 mM Tris (tris-(hydroxymethyl)-amino methane) pH 8.0, 10 mM NaF (sodium fluoride), 2 mM MgCl2 (Magnesium chloride), 1 mM DTT (dithiothreitol), 2 mM EGTA (ethylene glycol-bis(β-amino-ethyl ether)-N,N,N′,N′-tetraacetic acid), 1 mM PMSF (phenylmethylsulfonyl fluoride), 0.1% NP40 (Nonidet P-40), 10 μg/ml Aprotinin, 10 μg/ml Leupeptin, and 1 mM orthovanadate. Lysates were cleared by centrifugation (20 min, 13000 rpm, 4° C.) and filtered using a 0.45 μm syringe filter (Nalgene). This cleared material was further purified by a 1 ml Mono Q column (Amersham Biosciences) equilibrated with lysis buffer without additives. After washing the column, bound proteins were eluted with lysis buffer containing 1 M NaCl in a step gradient modus. Eluted proteins were collected in 1 ml fractions, systematically pooled, dialysed against 50 mM Tris pH 7.5, 10 mM NaF, 1 mM DTT, 0.01% Triton X-100 and stored at −80° C. Chromatography runs were performed on a AKTA explorer 10 system (Amersham Biosciences). Samples were subsequently assayed by in-vitro kinase assays and western blot analysis.
GST-NS5A immobilized to Glutathione Sepharose 4B beads (Amersham Biosciences) was washed twice with 500 μl kinase buffer (50 mM Tris pH 7.5, 10 mM MgCl2, 0.5 mM DTT). […]

Huh-5-2 replicon cells = assay: Alamar Blue toxicity assay in Huh-5-2 replicon cells; format: cell-based, human; settings: for % of cell viability: 3 days, Huh-5-2, percentage of DMSO controls
Source text: as §1

SMILES: C[S+]([O-])c1ccc(-c2nc(-c3cccc(I)c3)c(-c3ccncc3)[nH]2)cc1 (centres unmarked) [Compound 39, 4-[5-(3-Iodo-phenyl)-2-(4-methanesulfinyl-phenyl)-3H-imidazole-4-yl]-pyridine]
- synthesis of HCV RNA (HCV RNA): reduced
- % activity (luciferase, replicon RNA levels) (HCV replicons; 1.25 μM): 117%
- % activity (luciferase, replicon RNA levels) (HCV replicons; 2.5 μM): 104%
- % activity (luciferase, replicon RNA levels) (HCV replicons; 5 μM): 89%
- % activity (luciferase, replicon RNA levels) (HCV replicons; 10 μM): 28%
- % activity (luciferase, replicon RNA levels) (HCV replicons; 20 μM): 0%
- pIC50 (HCV replicons; Hepatitis C virus, 72 h, Huh-5-2, 3 days, read-out: IC50, replication of subgenomic HCV replicon RNA in the luciferase reporter assay): 5.05
- inhibitory effect on NS5A-phosphorylating kinase activity present in the Peak I fractions (CKI isoforms α, δ and ε): potent inhibitor
- % of cell viability (Huh-5-2 replicon cells; 1.25 μM): 108%
- % of cell viability (Huh-5-2 replicon cells; 2.5 μM): 105%
- % of cell viability (Huh-5-2 replicon cells; 5 μM): 109%
- % of cell viability (Huh-5-2 replicon cells; 10 μM): 114%
- % of cell viability (Huh-5-2 replicon cells; 20 μM): 72%
- Toxicity (Huh-5-2 replicon cells; up to a concentration of 10 μM, Huh-5-2): low
